Measurements taken from ChEMBL document CHEMBL1909046, “DrugMatrix in vitro pharmacology data”.
pIC50, pKi: −log10 of the molar value.

Assays:
[1] = DRUGMATRIX: Sodium/nucleoside co-transporter radioligand binding (ligand: nitrobenzylthioinosine); assay type: cell membranes, Cavia porcellus, Dunkin-Hartley, Cerebral cortex, Membrane; conditions: Not Active = under 50% inhibition at 10 µM
Thromboxane-A synthase = target: T1, Thromboxane-A synthase (Homo sapiens, UniProt P24557); assay: biochemical; assay type: tissue-based, Platelet; conditions: platelet;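 further: enzyme inhibition assay with PGH2 supplied as substrate; in other assays of this panel Not Active means under 50% inhibition at 10 µM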
T1 sequence (P24557 whole entry): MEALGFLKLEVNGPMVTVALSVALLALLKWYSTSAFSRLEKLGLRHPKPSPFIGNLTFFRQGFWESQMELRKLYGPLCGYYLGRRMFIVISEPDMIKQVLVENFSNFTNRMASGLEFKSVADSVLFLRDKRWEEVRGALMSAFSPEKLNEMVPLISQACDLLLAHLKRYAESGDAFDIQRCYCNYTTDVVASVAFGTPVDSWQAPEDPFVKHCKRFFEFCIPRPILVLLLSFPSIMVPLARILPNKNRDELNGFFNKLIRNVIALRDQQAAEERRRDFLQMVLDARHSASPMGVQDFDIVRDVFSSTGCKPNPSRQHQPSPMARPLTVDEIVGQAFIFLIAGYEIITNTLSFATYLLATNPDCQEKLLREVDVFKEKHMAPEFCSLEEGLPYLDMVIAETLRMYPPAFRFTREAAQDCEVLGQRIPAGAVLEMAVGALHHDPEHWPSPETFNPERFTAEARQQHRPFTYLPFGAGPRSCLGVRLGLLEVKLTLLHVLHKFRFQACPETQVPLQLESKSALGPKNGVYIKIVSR

Leukotriene C4 synthase = target: T2, Leukotriene C4 synthase (Cavia porcellus, UniProt A6XA80); assay: biochemical; assay type: tissue-based, Lung;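 further: enzyme inhibition assay of leukotriene C4 synthase, using LTA4 as the substrate; in other assays of this panel Not Active means under 50% inhibition at 10 µM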
T2 sequence (A6XA80 whole entry): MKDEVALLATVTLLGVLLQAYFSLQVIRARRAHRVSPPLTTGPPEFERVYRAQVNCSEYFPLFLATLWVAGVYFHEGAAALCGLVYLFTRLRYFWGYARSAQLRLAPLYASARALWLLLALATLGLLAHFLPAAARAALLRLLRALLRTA

[2] = target: T3, Cysteinyl leukotriene receptor 1 (Homo sapiens, UniProt Q9Y271); assay type: cell membranes, CHO-K1, Membrane; conditions: cho-k1; further: in other assays of this panel Not Active means under 50% inhibition at 10 µM
T3 sequence (Q9Y271 whole entry): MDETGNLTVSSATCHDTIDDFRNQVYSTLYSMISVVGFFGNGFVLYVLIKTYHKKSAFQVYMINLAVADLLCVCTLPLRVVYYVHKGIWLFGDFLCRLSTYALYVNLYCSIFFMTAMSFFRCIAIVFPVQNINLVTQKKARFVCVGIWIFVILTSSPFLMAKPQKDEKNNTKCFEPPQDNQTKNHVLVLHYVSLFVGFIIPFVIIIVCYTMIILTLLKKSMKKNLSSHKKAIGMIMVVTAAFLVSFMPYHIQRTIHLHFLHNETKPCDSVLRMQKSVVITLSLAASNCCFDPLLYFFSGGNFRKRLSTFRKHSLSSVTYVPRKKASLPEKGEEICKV

Melanocortin receptor 5 = Melanocortin receptor 5 (Homo sapiens, UniProt P33032); assay type: cell membranes, HEK293, Membrane; further: in other assays of this panel Not Active means under 50% inhibition at 10 µM
Adenosine receptor A1 = target: T4, Adenosine receptor A1 (Homo sapiens, UniProt P30542); assay type: cell membranes, CHO, Membrane; conditions: cho
T4 sequence (P30542 whole entry): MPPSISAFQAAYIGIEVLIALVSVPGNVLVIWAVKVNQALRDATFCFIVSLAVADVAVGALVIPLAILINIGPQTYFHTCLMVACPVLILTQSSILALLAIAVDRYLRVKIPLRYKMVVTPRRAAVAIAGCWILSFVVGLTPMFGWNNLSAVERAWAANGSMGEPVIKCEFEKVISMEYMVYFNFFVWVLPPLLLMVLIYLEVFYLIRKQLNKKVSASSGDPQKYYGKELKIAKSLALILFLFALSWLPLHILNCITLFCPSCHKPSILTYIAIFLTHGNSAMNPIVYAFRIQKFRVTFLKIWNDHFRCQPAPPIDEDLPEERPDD

Sequence of Melanocortin receptor 5 (P33032 whole entry): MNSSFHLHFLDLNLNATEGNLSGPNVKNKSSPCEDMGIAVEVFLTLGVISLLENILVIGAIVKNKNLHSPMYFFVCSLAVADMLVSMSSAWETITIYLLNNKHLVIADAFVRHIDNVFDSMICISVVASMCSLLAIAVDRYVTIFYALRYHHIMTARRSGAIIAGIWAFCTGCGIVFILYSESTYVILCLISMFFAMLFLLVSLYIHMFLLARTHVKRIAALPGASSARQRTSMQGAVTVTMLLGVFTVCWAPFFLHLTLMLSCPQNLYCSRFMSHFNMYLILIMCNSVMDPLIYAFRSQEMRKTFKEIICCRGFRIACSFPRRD

O=C1c2ccccc2C(=O)C1c1ccccc1 [PHENINDIONE]
Not Active: IC50 [1] | Ki [1] | IC50 (Thromboxane-A synthase) | IC50 (Leukotriene C4 synthase) | IC50 [2] | IC50 (Melanocortin receptor 5; hek293) | IC50 (Adenosine receptor A1)

Clc1cc(Cl)c(OCC#CI)cc1Cl [HALOPROGIN]
Not Active: IC50 [1] | Ki [1] | IC50 (Thromboxane-A synthase) | IC50 (Leukotriene C4 synthase) | IC50 [2] | IC50 (Melanocortin receptor 5; hek293) | IC50 (Adenosine receptor A1)

C[C@H]1C[C@H]2[C@@H]3CCC4=CC(=O)C=C[C@]4(C)[C@@]3(F)[C@@H](O)C[C@]2(C)[C@@]1(O)C(=O)CO [BETAMETHASONE]
Not Active: IC50 [1] | Ki [1] | IC50 (Thromboxane-A synthase) | IC50 (Leukotriene C4 synthase) | IC50 [2] | IC50 (Melanocortin receptor 5; hek293) | IC50 (Adenosine receptor A1)

COc1ccc(Cl)cc1C(=O)NCCc1ccc(S(=O)(=O)NC(=O)NC2CCCCC2)cc1 [GLYBURIDE]
Not Active: IC50 [1] | Ki [1] | IC50 (Thromboxane-A synthase) | IC50 (Leukotriene C4 synthase) | IC50 [2] | IC50 (Melanocortin receptor 5; hek293) | IC50 (Adenosine receptor A1)

CC1(COc2ccc(CC3SC(=O)NC3=O)cc2)CCCCC1 (centres undefined) [CIGLITAZONE]
4.54: pIC50 (Melanocortin receptor 5; read-out: IC50)
Not Active: IC50 [1] | Ki [1] | IC50 (Thromboxane-A synthase) | IC50 (Leukotriene C4 synthase) | IC50 [2] | IC50 (Adenosine receptor A1)
4.57: pKi (Melanocortin receptor 5; read-out: Ki)

Cc1ccnc2c1NC(=O)c1cccnc1N2C1CC1 [NEVIRAPINE]
Not Active: IC50 [1] | Ki [1] | IC50 (Thromboxane-A synthase) | IC50 (Leukotriene C4 synthase) | IC50 [2] | IC50 (Melanocortin receptor 5; hek293) | IC50 (Adenosine receptor A1)

CNC[C@H](O)c1ccc(O)c(O)c1 [EPINEPHRINE]
Not Active: IC50 [1] | Ki [1] | IC50 (Thromboxane-A synthase) | IC50 (Leukotriene C4 synthase) | IC50 [2] | IC50 (Melanocortin receptor 5; hek293) | IC50 (Adenosine receptor A1)

CN(Cc1cc(Br)cc(Br)c1N)C1CCCCC1 [BROMHEXINE]
Not Active: IC50 [1] | Ki [1] | IC50 (Thromboxane-A synthase) | IC50 (Leukotriene C4 synthase) | IC50 [2] | IC50 (Melanocortin receptor 5; hek293) | IC50 (Adenosine receptor A1)

COPPER(II) OXIDE
Not Active: IC50 [1] | Ki [1] | IC50 (Thromboxane-A synthase) | Ki (Thromboxane-A synthase) | IC50 (Leukotriene C4 synthase) | Ki (Leukotriene C4 synthase) | IC50 [2] | Ki [2] | IC50 (Melanocortin receptor 5; hek293) | Ki (Melanocortin receptor 5; hek293) | IC50 (Adenosine receptor A1) | Ki (Adenosine receptor A1)

CCN1C[C@]2(COC)[C@H](O)C[C@H](OC)[C@@]34[C@@H]5C[C@@]6(O)[C@H](OC(=O)c7ccccc7)[C@@H]5[C@@](OC(C)=O)([C@@H]([C@H](OC)[C@H]23)[C@@H]14)[C@@H](O)[C@@H]6OC [ACONITINE]
Not Active: IC50 [1] | Ki [1] | IC50 (Thromboxane-A synthase) | IC50 (Leukotriene C4 synthase) | IC50 [2] | IC50 (Melanocortin receptor 5; hek293) | IC50 (Adenosine receptor A1)

COc1ccc(C[C@H](N)C(=O)N[C@H]2[C@@H](O)[C@H](n3cnc4c(N(C)C)ncnc43)O[C@@H]2CO)cc1 [PUROMYCIN]
Not Active: IC50 [1] | Ki [1] | IC50 (Thromboxane-A synthase) | IC50 (Leukotriene C4 synthase) | IC50 [2] | IC50 (Melanocortin receptor 5; hek293) | IC50 (Adenosine receptor A1)

OC[C@H]1OC2C3[C@@H](CO)OC(O[C@H]4[C@H](O)[C@@H](O)[C@@H](O[C@H]5[C@H](O)[C@@H](O)[C@@H](O[C@H]6[C@H](O)[C@@H](O)[C@@H](O[C@H]7[C@H](O)[C@@H](O)[C@@H](O[C@H]8[C@H](O)[C@@H](O)[C@@H](O[C@H]9[C@H](O)[C@@H](O)C(OC1[C@H](O)[C@H]2O)O[C@@H]9CO)O[C@@H]8CO)O[C@@H]7CO)O[C@@H]6CO)O[C@@H]5CO)O[C@@H]4CO)[C@H](O)[C@H]3O
Not Active: IC50 [1] | Ki [1] | IC50 (Thromboxane-A synthase) | IC50 (Leukotriene C4 synthase) | IC50 [2] | IC50 (Melanocortin receptor 5; hek293) | IC50 (Adenosine receptor A1)

NC(N)=Nc1nc(CSCCC(N)=NS(N)(=O)=O)cs1 [FAMOTIDINE]
Not Active: IC50 [1] | Ki [1] | IC50 (Thromboxane-A synthase) | IC50 (Leukotriene C4 synthase) | IC50 [2] | IC50 (Melanocortin receptor 5; hek293) | IC50 (Adenosine receptor A1)

C[N+](C)(C)CCOP(=O)([O-])OC[C@H](O)CO
Not Active: IC50 [1] | Ki [1] | IC50 (Thromboxane-A synthase) | IC50 (Leukotriene C4 synthase) | IC50 [2] | IC50 (Melanocortin receptor 5; hek293) | IC50 (Adenosine receptor A1)
